Laboratory results as given in patent US7709516B2, “Helix 12 directed non-steroidal antiandrogens” (Endorecherche, Inc., priority 2005, dated 2010).
Where two headings read alike, the source gives them in different places.

Legend:
[1] = test system: rat prostate, seminal vesicle, levator ani muscle; assay: Systemic antiandrogenic activity in orchidectomized immature male rats with DHT implant; format: in vivo; settings: Rattus norvegicus, po, 168 h, rat +DHT, p.o, 0.5 mg/animal daily 7 days
[2] = test system: Shionogi mouse mammary carcinoma cells; assay: Androgenic/antiandrogenic activity: inhibition of DHT-stimulated Shionogi cell number; format: cell-based; settings: DHT-stimulated Shionogi cell number
Human Androgen Receptor = target: T1, Human Androgen Receptor (Homo sapiens, UniProt P10275); assay: Androgen receptor binding assay ([3H]R1881, HAP) in cytosol of HEK-293 cells transfected with hAR; settings: relative to R1881 = 100, transfected cells
T1 sequence (P10275 1-920): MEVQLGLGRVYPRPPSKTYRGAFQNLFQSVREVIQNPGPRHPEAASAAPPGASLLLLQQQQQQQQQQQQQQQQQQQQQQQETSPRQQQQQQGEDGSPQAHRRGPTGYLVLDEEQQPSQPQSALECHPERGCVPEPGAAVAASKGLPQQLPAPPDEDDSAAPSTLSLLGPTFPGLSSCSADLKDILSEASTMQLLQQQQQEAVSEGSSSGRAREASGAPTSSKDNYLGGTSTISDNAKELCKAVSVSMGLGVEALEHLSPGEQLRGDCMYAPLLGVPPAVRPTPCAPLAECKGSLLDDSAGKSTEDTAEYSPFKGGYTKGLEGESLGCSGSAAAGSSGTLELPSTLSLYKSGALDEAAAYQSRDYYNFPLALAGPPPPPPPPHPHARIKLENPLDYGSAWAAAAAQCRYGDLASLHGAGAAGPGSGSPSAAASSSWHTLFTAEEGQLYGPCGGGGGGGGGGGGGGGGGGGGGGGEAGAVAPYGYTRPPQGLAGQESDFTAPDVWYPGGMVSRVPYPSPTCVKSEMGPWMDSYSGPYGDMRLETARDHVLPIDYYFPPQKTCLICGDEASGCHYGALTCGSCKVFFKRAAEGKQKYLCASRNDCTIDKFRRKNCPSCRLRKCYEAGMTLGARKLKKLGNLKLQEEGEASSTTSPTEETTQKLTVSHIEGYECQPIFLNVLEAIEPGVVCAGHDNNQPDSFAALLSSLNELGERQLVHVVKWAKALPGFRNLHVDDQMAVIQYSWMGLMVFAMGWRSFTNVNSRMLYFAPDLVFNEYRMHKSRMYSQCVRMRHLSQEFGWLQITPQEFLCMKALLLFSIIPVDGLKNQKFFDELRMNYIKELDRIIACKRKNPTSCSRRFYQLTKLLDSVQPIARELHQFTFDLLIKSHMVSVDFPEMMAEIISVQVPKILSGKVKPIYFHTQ

[3] = test system: rat prostate, seminal vesicle, levator ani muscle; assay: Systemic androgenic activity in orchidectomized immature male rats; format: in vivo; settings: for change in vivo at 0.2 mg: po, 168 h, 0.2 mg/animal daily 7 days
Excerpt: Column 7 represents the % of androgenic efficacy in rat prostate, expressed in percentage of stimulation:
W is the weight of the prostate.
Column 8 represents the % of androgenic efficacy in rat seminal vesicle, expressed in percentage of stimulation:
W is the weight of the seminal vesicle.
Column 9 represents the % of androgenic efficacy in rat levator ani muscle, expressed in percentage of stimulation: […]
Immature male rats (Crl:CD(SD)Br) 22 to 24-day old were obtained from Charles-River, Inc. (St-Constant, Quebec, Canada) and housed up to 5 per cage in plastic bins in a temperature (23±1° C.)— and light (12 h light/day, lights on at 7h15)— controlled environment. The rats were fed rodent chow and tap water ad libitum. The day following their arrival, the animals were orchidectomized (CX) under Isoflurane anesthesia via scrotal route and randomly assigned to groups of 5 animals.
To evaluate the antiandrogenic activity, tested compounds were administered subcutaneously or orally once daily at a dose of 0.5 mg/animal for antiandrogenitic activity or 0.2 mg/animal for androgenic activity for 7 days (SD 1 to 7). Compounds were solubilized (when possible) in dimethylsulfoxide (DMSO, 10% final concentration) and administered as suspension in 0.4% methylcellulose. […] One group of animals received the antiandrogen Flutamide as reference. The animals were killed by cervical dislocation under isoflurane anesthesia on the 8th morning following castration. The ventral prostate and seminal vesicles were rapidly dissected and weighed.
3. Calculations and Statistical Analysis
W is the weight of the prostate, the seminal vesicle or levator ani.

[4] = Prostate cell, read-out: Lev Ani % inhibition, Table 1, levator ani
[5] = Prostate cell, read-out: SV % inhibition, Table 1, seminal vesicle
[6] = read-out: Prostate % inhibition, Table 1
[7] = Mus musculus, read-out: Shionogi Antiandrogenic Activity IC50, Table 1
[8] = Table 3, p.o (marked in prostate cell), read-out: % Stimulation Lev.Ani
[9] = Table 3, p.o (marked in prostate cell), read-out: % Stimulation SV
[10] = Table 3, p.o, read-out: % Stimulation Prostate
[11] = Table 3, agonist reported when compound stimulates the cells
[12] = Table 3, s.c. or p.o (route not marked)

SMILES	inhibition in vivo at 0.5 mg [1, 4] [%]	inhibition in vivo at 0.5 mg [1, 5] [%]	inhibition in vivo at 0.5 mg [1, 6] [%]	IC50 [2, 7] [nM]	Human Androgen Receptor Binding (%) RBA R1881 = 100 (Human Androgen Receptor; Table 1) [%]	change in vivo at 0.2 mg [3, 8] [%]	change in vivo at 0.2 mg [3, 9] [%]	change in vivo at 0.2 mg [3, 10] [%]	Shionogi Antiandrogenic Activity IC50 [2, 11]	Human Androgen Receptor Binding (%) RBA R1881 = 100 (Human Androgen Receptor; Table 3) [%]	other results
CC1(C)C(=O)N(c2ccc(C#N)c(C(F)(F)F)c2)C(=S)N1CCCOc1ccc(CN2CCSCC2)cc1 [EM-8344]	51	77	50	12.6	161.6						
CCC(c1ccc(OCCCN2C(=S)N(c3ccc(C#N)c(Cl)c3C)C(=O)C2(C)C)cc1)N(C)C (centres unmarked) [EM-8345]						77	18	42	Partial agonist	68	
Cc1c(N2C(=O)C(C)(C)N(CCCOc3ccc(-n4ccnc4)cc3)C2=S)ccc(C#N)c1Cl [EM-8346]						128	40	47	Partial agonist	125	
CC1(C)C(=O)N(c2ccc(C#N)c(Cl)c2)C(=S)N1CCCOc1ccc(S(C)(=O)=O)cc1 [EM-8360]	82	88	56	7.1	18.1						
CC(=O)Nc1ccc(OCCCN2C(=S)N(c3ccc(C#N)c(Cl)c3C)C(=O)C2(C)C)cc1 [EM-8362]						105	43	33	Partial agonist	66	
Cc1c(N2C(=O)C(C)(C)N(CCCOc3ccc(S(=O)(=O)C(C)C)cc3)C2=S)ccc(C#N)c1Cl [EM-8363]						85	24	29	Partial agonist	52	
Cc1cc2c(C)c(C)c(=O)oc2cc1OCCCN1C(=S)N(c2ccc(C#N)c(C(F)(F)F)c2)C(=O)C1(C)C [EM-8385]	20	41	17		50.5						Shionogi Antiandrogenic Activity IC50 ([2]; Table 1): Partial agonist
CC1(C)C(=O)N(c2ccc(C#N)c(C(F)(F)F)c2)C(=S)N1CCCOc1ccc2c(C(F)(F)F)cc(=O)oc2c1 [EM-8393]	35	60	3	44.5	7.7						
C[C@]12CC[C@H]3[C@@H](CCC4=CC(=O)CC[C@@]43C)[C@@H]1CC[C@@H]2O [Testo, reference compound]											% Stimulation Lev.Ani [3, 12]: 171%; % Stimulation Prostate [3, 12]: 99%; % Stimulation SV [3, 12]: 115%; IC50 ([2]; Table 3, agonist reported when compound stimulates the cells, read-out: Shionogi Antiandrogenic Activity IC50): 23 to 107 nM
